{"source": "patent US6548527B2", "about": "“Treatments for immune-mediated ear disorders” (The General Hospital Corporation, priority 2000, dated 2003)", "assay_type_in_all_cases": "in vivo, human", "key": {"[1]": {"tested_on": "patients with IMCVD", "experiment": "Initial trials of leflunomide in patients with IMCVD (20 mg orally every day)", "conditions": "of 3 patients, 5-6 month or 1-year regimen"}, "[2]": {"tested_on": "patients with progressive IMCVD", "experiment": "Etanercept treatment of twelve patients with progressive IMCVD (25 mg subcutaneous injection twice a week)", "description": "Study subjects were suspected of having IMCVDs mainly based on (1) the presence of bilateral sensorineural healing loss or typical symptoms of Meniere's disease with a recent progressive decline, (2) a clear response to high dose prednisone therapy, and/or (3) the presence of anti-HSP70 antibodies. Reasons for attempting etanercept therapy in these study patients included: (a) failure of conventional treatments in seven, (b) side effects of conventional treatment in three, (c) the need for corticosteroid sparing agent with a quick onset of action given intolerable corticosteroid side effects and rapidly progressive worsening of hearing in three, and (d) the patient's wish to avoid conventional agents in two given their known side effects of sub-optimal efficacy profile.\nOf the 12 patients, six (50%) were women. The mean age was 47 (range, 24 to 71), and the mean duration of disease prior to the etanercept therapy was 13 years (range, 2 to 25 years). All 12 patients had both ears involved, 2 had predominantly one ear involvement with good hearing in the contralateral ear, 4 had significant loss of hearing in both ears, and 6 had lost all functional hearing in one ear and were treated with etanercept for a recent progressive decline of the remaining hearing. […] Patient # 9 had symmetric polyarthralgia, morning stiffness without documented synovitis, negative rheumatoid factor and positive anti-nuclear antibodies. Four of the 10 patients who were tested had antibodies to HSP70. Previous anti-rheumatic treatments included methotrexate in five, cyclophosphamide (CYTOXAN) in two, hydroxycholoquine in one, and chlorambucil in one. All patients received a trial of diuretics and sodium-restricted diet. Two of the patients had hypertension, one had diet-controlled diabetes mellitus, one had hyperlipidemia, and one had hypothyroidism.\nEtanercept was started while the patients were on high dose prednisone (except in 2 cases, who were already off prednisone because of intolerable side-effects). The prednisone dose was then tapered off over 2 to 6 weeks (except in 2 cases) depending on disease severity, response to prednisone, and the severity of side effects of prednisone. The mean duration of the etanercept treatment in the 12 patients was 7 months (82 patient-months; range, 5 to 10 months) and mean follow-up from the start date of etanercept therapy was 8 months (range: 5.66 to 12 months). Seven of the twelve patients were still on etanercept at the end of study period (mean duration of 7 months) and the remaining five discontinued the drug. Four patients discontinued the drug at the end of the target period (6 months), and one patient was switched to infliximab (Remicade™), another TNF-receptor blocker for less than desired benefit from etanercept (duration 9 months). A criteria of prednisone response was based on improvements in hearing, vertigo, and equilibrium, as previously published by Sismanis et al. (Otolaryngology—Head and Neck Surgery 116(2): 146-52, 1997).\nThe main outcome measurement was improvement or stabilization of hearing by air conduction pure tone audiograms and/or by word discrimination scores. A slightly modified version of improvement criteria which was previously used to evaluate the efficacy of glucocorticoids was employed for IMCVDs: >15 dB at one frequency, 10 dB at two or more consecutive frequencies, or 15% increase in word discrimination scores (Sismanis et al., supra; Rauch, Annals of the New York Academy of Sciences 830:203-210, 1997). The audiogram before initiation of etanercept was compared with the most recent audiogram. When present, vertigo, tinnitus, and fullness were assessed using a 3-level response scale: better, no change, and worse. Outcomes were based on measurements at the farthest follow-up from the initiation of etanercept or at the declaration of no improvement in hearing by etanercept therapy, whichever came first. More than a 5-month follow-up was available for all patients (range: 5-12 months) […]"}, "[3]": {"tested_on": "patients with IMCVD", "experiment": "Two other separate trials of etanercept in additional IMCVD patients"}, "[4]": {"tested_on": "patients with IMCVD", "experiment": "Infliximab trial in patients with IMCVD (3 mg/kg intravenous infusion every two months)", "conditions": "of 3 patients; 3 mg/kg i.v. infusion every two months, at least 6 months", "description": "In addition to etanercept, another TNF antagonist, infliximab, was also tested for efficacy. In this trial, 3 patients with IMCVD were treated with 3 mg/kg body weight of Remicade™ by intravenous infusion every two months. Treatment was continued for at least 6 months, and the patients were monitored."}, "[5]": {"conditions": "single patient #1 on etanercept"}}}
{"compound": "Cc1oncc1C(=O)Nc1ccc(C(F)(F)F)cc1", "note": "[leflunomide, N-(4′-trifluoromethylphenyl)-5-methylisoxazole-4-carboxamide]", "values": [{"measurement": "patients exhibiting positive results", "setting": "[1]", "value": 2, "unit": "patients"}, {"measurement": "overall hearing after leflunomide was later added, patient #8", "setting": "[2]; single patient #8, leflunomide added to etanercept", "value": "did not make any difference"}, {"measurement": "hearing outcome after addition of leflunomide to etanercept, patient #11", "setting": "[2]; single patient #11, leflunomide added to etanercept after deterioration", "value": "rescued and stabilized"}]}
{"compound": "etanercept", "values": [{"measurement": "patients showing positive outcomes", "setting": "[3]; in sum, out of 18 patients with IMCVD treated with etanercept (all trials)", "value": 16, "unit": "patients"}, {"measurement": "outcome of IMCVD symptoms in additional patients", "setting": "[3]; six additional patients in two other separate trials", "value": "all showed improvement or stabilization of IMCVD symptoms"}, {"measurement": "patients who had aural fullness with resolution or significant improvement of symptoms", "setting": "[2]; 8 out of 9 patients who had aural fullness", "value": 89, "unit": "%"}, {"measurement": "patients on prednisone able to taper off prednisone without affecting their hearing", "setting": "[2]; 10 patients on variable doses of prednisone to maintain hearing, after starting etanercept", "value": "Eight of the 10"}, {"measurement": "patients with improvement or stabilization of hearing and tinnitus", "setting": "[2]; 11 out of 12 patients, 25 mg s.c. twice a week, follow-up 5-12 months", "value": 92, "unit": "%"}, {"measurement": "adverse reactions", "setting": "[2]; 12 patients, 25 mg s.c. twice a week", "value": "no adverse reactions except for mild transient injection-site reactions in a few patients"}, {"measurement": "patients who had vertigo with resolution or significant improvement of symptoms", "setting": "[2]; Seven out of 8 patients who had vertigo", "value": 88, "unit": "%"}, {"measurement": "side effects during the follow-up period", "setting": "[2]; follow-up period", "value": "no appreciable side effects"}, {"measurement": "persistence of benefit until the last visit, time after starting etanercept", "setting": "[2]; human, in vivo", "value": "5 to 12", "unit": "months"}, {"measurement": "hearing fluctuation, tinnitus, aural fullness and vertigo, patient #1", "setting": "[2]; [5]", "value": "the fluctuation stabilized and their tinnitus, aura fullness, and vertigo resolved"}, {"measurement": "overall hearing, patient #1", "setting": "[2]; [5]", "value": "did not have any significant improvement"}, {"measurement": "tinnitus and vertigo after switching to etanercept, patient #8", "setting": "[2]; single patient #8", "value": "improvement"}, {"measurement": "hearing outcome, patient #8 switched to etanercept", "setting": "[2]; single patient #8, previously losing hearing on methotrexate and chlorambucil", "value": "stabilized their hearing after being switched to etanercept but at a lower level than their baseline"}, {"measurement": "hearing outcome, patient #11 on etanercept", "setting": "[2]; single patient #11", "value": "initial dramatic improvement after starting etanercept but deteriorated after 5 months"}, {"measurement": "patients who experienced improvement in tinnitus, aural fullness, and vertigo", "setting": "[2]; summary of 12 patients", "value": "approximately 90%"}, {"measurement": "patients who stabilized their rapidly progressing hearing loss", "setting": "[2]; summary of 12 patients", "value": 33, "unit": "%"}, {"measurement": "patients with remarkable improvement of hearing", "setting": "[2]; summary of 12 patients", "value": 58, "unit": "%"}]}
{"compound": "infliximab: chimeric monoclonal antibody that binds to TNF-α, marketed as Remicade", "values": [{"measurement": "patients exhibiting positive results", "setting": "[4]", "value": 3, "unit": "patients"}, {"measurement": "hearing after switch from etanercept to infliximab, patient #11", "setting": "[2]; single patient #11, switched after 9 months on etanercept", "value": "remained unchanged"}]}
